Experimental data taken from article doi:10.1101/2025.03.18.644008v1 (biorxiv, 2025).

Target: T1, LPA3 receptor (Homo sapiens, UniProt Q9UBY5)
T1 sequence (Q9UBY5 1-353): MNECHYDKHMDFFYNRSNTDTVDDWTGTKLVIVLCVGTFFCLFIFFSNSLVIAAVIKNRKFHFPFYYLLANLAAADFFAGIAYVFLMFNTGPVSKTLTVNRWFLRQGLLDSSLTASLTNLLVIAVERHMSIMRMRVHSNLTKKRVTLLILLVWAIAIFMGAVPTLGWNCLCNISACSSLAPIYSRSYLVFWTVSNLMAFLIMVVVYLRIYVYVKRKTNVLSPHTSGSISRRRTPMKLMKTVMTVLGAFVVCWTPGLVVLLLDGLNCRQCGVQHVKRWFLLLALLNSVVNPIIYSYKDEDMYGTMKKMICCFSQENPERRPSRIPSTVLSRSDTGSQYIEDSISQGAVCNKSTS
Assay: intracellular calcium, Fura-2 AM, induced HEK […] Flp-In TREx cells
Type: cell-based

Fc1ccc([C@@H]2CCNC[C@H]2COc2ccc3c(c2)OCO3)cc1 [paroxetine]
EC50: ~30 µM

CCCCCCCC/C=C\CCCCCCCC(=O)OC[C@@H](COP(O)(O)=S)OC [OMPT]
EC50: ~0.06 µM
